In paper PMC5845353, “The selective cathepsin K inhibitor MIV-711 attenuates joint pathology in experimental animal models of osteoarthritis” (Journal of Translational Medicine, 2018):
Marks after values point to notes of the source that are not given here.

Tested on: rabbits subjected to anterior cruciate ligament transection (ACLT)
Assay: Rabbit ACLT study, µCT of trabecular bone
Format: in vivo
Excerpt: The animals were acquired following review and approval by the Institutional Animal Care and Use Committee (IACUC) at Numira (Salt Lake City, UT). The protocol was also reviewed and approved by the IACUC at Ibex Preclinical Research Inc. (Logan, UT). Male, New Zealand White rabbits (n = 32) were purchased from the Western Oregon Rabbit Co. (Philomath, OR). The animals were approximately 9 months old, weighed 3.7–4.5 kg at the start of the experiment and were randomized into four treatment groups based on body weight.
Pre-operative butorphanol (0.5–1.0 mg/kg, i.m.) for analgesia and glycopyrrolate (~ 0.1 mg/kg i.m.) were administered up to 15 min prior to induction. Anesthesia was induced by a mixture of ketamine (20–40 mg/kg, i.m.) and xylazine (5–10 mg/kg, i.m.), followed by placement of an endotracheal tube. General anesthesia was maintained with isoflurane. Perioperative cefazolin (40 mg/kg, i.v.) was administered, and […] (0.2 mg/kg, i.v.) was administered to reverse the effects of xylazine after endotracheal intubation was complete. A fentanyl patch (25 µg/h) was placed on a clipped area of the skin to provide post-operative analgesia. An incision of 1.5–2.5 cm was made in the skin over the medial side of the right knee under aseptic conditions. The patella was dislocated laterally and the knee placed in full flexion. The anterior cruciate ligament (ACL) was visualized and transected with an appropriate blade. In sham animals, the ACL was visualized but not transected. The joint was irrigated with sterile saline and closed. The muscle and skin were closed with suture and/or surgical glue. Butorphanol (0.5–1 mg/kg, i.m.) was administered after extubation to provide supplemental analgesia. The animals were then individually housed in stainless steel or plastic cages.
Starting 1 week after sham operation or ACLT, animals were dosed daily for 7 weeks by oral gavage with either MIV-711 (synthesized by Medivir and given as a suspension in 1% Methocel A4C in water) or vehicle (1% Methocel A4C in water) at a dose volume of 4 mL/kg. The four treatment groups (n = 7 in each group) were: (1) sham + vehicle; (2) ACLT + vehicle; (3) ACLT + MIV-711, 30 µmol/kg (low dose) and (4) ACLT + MIV-711, 100 µmol/kg (high dose).
Femora and tibias from all animals were subjected to µCT scanning without and with contrast reagent, to visualize bone and cartilage, respectively. Samples were scanned on a high-resolution, volumetric µCT scanner (μCT40, ScanCo Medical, Zurich, CH). The image data was acquired with the following parameters: 36 μm isotropic voxel resolution at 300 ms exposure time, 2000 views and 1 frame per view. Each sample was scanned twice, once for acquiring bone data and once for soft tissue data. After the bone scans, the knees were stained using hexabrix for contrast-enhanced imaging of the cartilage. The µCT-generated DICOM files were used to analyze the samples and to create volume renderings of the regions of interest (ROI). The raw data files were converted into a file format compatible with the segmentation software VHLab (Numira). VHLab was used for segmenting out the regions of interest (osteophyte, cartilage, and subchondral bone) for the femur and tibia of each sample. A region spanning 9 mm of the articulating surface of the femur and 6.5 mm of the tibia was selected for segmenting out the cartilage and subchondral bone in the anterior–posterior direction. After the segmentation process, the voxel count associated with each of the regions of interest was calculated using VHLab. The voxel count was then multiplied by the cubic voxel resolution to obtain volume measurements for the different ROI. Cartilage thickness was calculated using SCIRun (Scientific Computing and Imaging Institute, University of Utah). The distance from the bone to the outer surface of the articulating cartilage was calculated. An image was generated that translates the distances into a color map for viewing the thickness along the length of the cartilage. […]

[1] = Femur Lateral, high dose 100 µmol/kg
[2] = Femur Lateral, low dose 30 µmol/kg
[3] = Femur Medial, high dose 100 µmol/kg
[4] = Femur Medial, low dose 30 µmol/kg
[5] = Tibia Lateral, high dose 100 µmol/kg
[6] = Tibia Lateral, low dose 30 µmol/kg
[7] = Tibia Medial, high dose 100 µmol/kg
[8] = Tibia Medial, low dose 30 µmol/kg

For C#C[C@@H]1CN(C(=O)[C@H](CC(C)C)NC(=O)c2ccc(-c3nc(N4CCN(C)CC4)sc3F)cc2)[C@@H]2C(=O)CO[C@H]12 [MIV-711], the Bone surface [1] was 101.7 ± 2.9 mm^2, the Bone surface/volume [1] was 18.7 ± 0.8 1/mm and the Connective density [1] was 11.90 ± 1.51 1/mm^3. For the same compound, the Structure model index [1] was 0.63 ± 0.11, the Tissue mineral density [1] was 673.6 ± 7.0 mgHA/ccm and the Trabecular bone volume [1] was 5.5 ± 0.2 mm^3. The Trabecular number [1] was 2.55 ± 0.10 1/mm, the Trabecular separation [1] was 0.40 ± 0.02 mm and the Trabecular thickness [1] was 0.19 ± 0.01 mm. The Bone surface [2] was 101.2 ± 4.3 mm^2, the Bone surface/volume [2] was 19.9 ± 1.3 1/mm and the Connective density [2] was 13.51 ± 1.54 1/mm^3. For the same compound, the Structure model index [2] was 0.73 ± 0.15, the Tissue mineral density [2] was 669.6 ± 8.4 mgHA/ccm and the Trabecular bone volume [2] was 5.3 ± 0.5 mm^3. The Trabecular number [2] was 2.58 ± 0.16 1/mm, the Trabecular separation [2] was 0.40 ± 0.03 mm and the Trabecular thickness [2] was 0.18 ± 0.01 mm. The Bone surface [3] was 105.2 ± 1.3 mm^2, the Bone surface/volume [3] was 15.1 ± 1.0 1/mm and the Connective density [3] was 9.14 ± 0.63 1/mm^3. It also gave a Structure model index [3] of 0.40 ± 0.07, a Tissue mineral density [3] of 699.1 ± 10.3 mgHA/ccm and a Trabecular bone volume [3] of 7.2 ± 0.5 mm^3. The Trabecular number [3] was 3.71 ± 0.68 1/mm, the Trabecular separation [3] was 0.30 ± 0.03 mm and the Trabecular thickness [3] was 0.22 ± 0.02 mm. The Bone surface [4] was 105.6 ± 3.8 mm^2, the Bone surface/volume [4] was 16.0 ± 1.6 1/mm and the Connective density [4] was 11.42 ± 1.61 1/mm^3. The Structure model index [4] was 0.48 ± 0.07, the Tissue mineral density [4] was 698.4 ± 15.7 mgHA/ccm and the Trabecular bone volume [4] was 7.0 ± 0.7 mm^3. For the same compound, the Trabecular number [4] was 3.02 ± 0.20 1/mm, the Trabecular separation [4] was 0.34 ± 0.02 mm and the Trabecular thickness [4] was 0.22 ± 0.03 mm. The Bone surface [5] was 152.7 ± 4.1 mm^2, the Bone surface/volume [5] was 14.9 ± 0.5 1/mm and the Connective density [5] was 16.25 ± 2.01 1/mm^3. For the same compound, the Structure model index [5] was 0.42 ± 0.11, the Tissue mineral density [5] was 707.0 ± 6.6 mgHA/ccm and the Trabecular bone volume [5] was 10.3 ± 0.4* mm^3. The Trabecular number [5] was 3.01 ± 0.16 1/mm, the Trabecular separation [5] was 0.34 ± 0.02 mm and the Trabecular thickness [5] was 0.22 ± 0.01 mm. The Bone surface [6] was 153.6 ± 4.1 mm^2, the Bone surface/volume [6] was 16.0 ± 1.2 1/mm and the Connective density [6] was 16.55 ± 1.95 1/mm^3. For the same compound, the Structure model index [6] was 0.51 ± 0.12, the Tissue mineral density [6] was 700.8 ± 10.6 mgHA/ccm and the Trabecular bone volume [6] was 9.9 ± 0.7 mm^3. For the same compound, the Trabecular number [6] was 2.96 ± 0.15 1/mm, the Trabecular separation [6] was 0.34 ± 0.02 mm and the Trabecular thickness [6] was 0.21 ± 0.01 mm. For the same compound, the Bone surface [7] was 124.9 ± 4.6 mm^2, the Bone surface/volume [7] was 13.2 ± 0.2 1/mm and the Connective density [7] was 8.47 ± 0.69 1/mm^3. The Structure model index [7] was 0.41 ± 0.10, the Tissue mineral density [7] was 726.9 ± 5.5 mgHA/ccm and the Trabecular bone volume [7] was 9.5 ± 0.5 mm^3. The Trabecular number [7] was 2.09 ± 0.15 1/mm, the Trabecular separation [7] was 0.50 ± 0.04 mm and the Trabecular thickness [7] was 0.26 ± 0.00 mm. The Bone surface [8] was 124.9 ± 3.3 mm^2, the Bone surface/volume [8] was 14.6 ± 1.2 1/mm and the Connective density [8] was 9.20 ± 1.08 1/mm^3. It also gave a Structure model index [8] of 0.52 ± 0.16, a Tissue mineral density [8] of 714.1 ± 13.1 mgHA/ccm and a Trabecular bone volume [8] of 8.9 ± 0.7 mm^3. For the same compound, the Trabecular number [8] was 2.05 ± 0.08 1/mm, the Trabecular separation [8] was 0.49 ± 0.02 mm and the Trabecular thickness [8] was 0.25 ± 0.02 mm. The “trabecular bone volume, lateral tibia, difference vs. sham” value (low dose 30 µmol/kg) was -8%.
